This is an account of results in patent US20230127046A1, “G9a INHIBITOR” (RIKEN, priority 2019, published 2023).

Where only a bound is given, the exact number is not on record here.

For orientation: IC50 means the concentration at which inhibition is half-maximal.

The target of the assay is T1, recombinant human G9a protein (Homo sapiens, UniProt Q96KQ7).
T1 construct: purchased BPS Bioscience Inc. #51001
T1 sequence (Q96KQ7 785-1210 limits assumed): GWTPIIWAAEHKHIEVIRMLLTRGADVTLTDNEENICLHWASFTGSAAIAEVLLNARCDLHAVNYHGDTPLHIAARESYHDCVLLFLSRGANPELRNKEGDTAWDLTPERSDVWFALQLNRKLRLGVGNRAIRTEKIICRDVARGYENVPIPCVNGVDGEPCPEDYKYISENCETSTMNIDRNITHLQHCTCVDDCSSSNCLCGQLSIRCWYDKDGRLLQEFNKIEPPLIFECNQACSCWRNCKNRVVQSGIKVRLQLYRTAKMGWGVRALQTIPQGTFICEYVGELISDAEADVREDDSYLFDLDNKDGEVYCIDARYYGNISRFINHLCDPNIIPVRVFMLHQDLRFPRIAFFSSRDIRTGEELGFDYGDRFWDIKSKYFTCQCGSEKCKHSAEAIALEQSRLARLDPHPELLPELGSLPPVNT
The assay can be described thus: G9a inhibitory activity test (ALPHA). To be noted: read-out: Inhibitory activity (G9a IC50). The format is biochemical. Summed up: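 Human G9a (0.05 to 0.1 nM) in Tris pH 9.0 buffer preincubated with compound 10 min, then biotinylated histone H3 (1-21) peptide and SAM mixed 1:1 from 500 nM and 150 μM solutions, 1 h at room temperature. H3K9me2 detected by AlphaLISA acceptor/streptavidin donor beads; IC50 from percent inhibition relative to no-compound and no-enzyme controls.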

Turning to `CCCCC(NC(=O)c1[nH]c2c(c1C)C(=O)CC(C)(C)C2)C(=O)N[C@@H](CO)c1ccccc1` (stereo partly drawn) [Example 3-1, N-(1-(((R)-2-hydroxy-1-phenylethyl)amino)-1-oxohexan-2-yl)-3,6,6-trimethyl-4-oxo-4,5,6,7-tetrahydro-1H-indole-2-carboxamide], the IC50 lay within 50 to 200 nM.
The figure for `CCCCC(NC(=O)c1[nH]c2c(c1C)C(=O)CC(C)(C)C2)C(=O)N[C@H](CO)c1ccccc1` (stereo partly drawn) [Example 3-2] is no less than 200 nM; for `CCCCC(NC(=O)c1[nH]c2c(c1C)C(=O)CC(C)(C)C2)C(=O)NCc1cccc(CN(C)C)n1` (stereo not drawn) [Example 4, N-[1-[[6-[(dimethylamino)methyl]pyridine-2yl]methylamino]-1-oxohexan-2-yl]-3,6,6-trimethyl-4-oxo-5,7-dihydro-1H-indole-2-carboxamide] it is no less than 200 nM; for `CCCCC(NC(=O)c1[nH]c2c(c1C)C(=O)CC(C)(C)C2)C(=O)Nc1ccccc1C(F)F` (stereo not drawn) [Example 5-1, N-[1-[2-(difluoromethyl)anilino]-1-oxohexan-2-yl]-3,6,6-trimethyl-4-oxo-5,7-dihydro-1H-indole-2-carboxamide] it is no less than 200 nM.
As to `CCCCC(NC(=O)c1[nH]c2c(c1C)C(=O)CC(C)(C)C2)C(=O)Nc1ccc2c(c1)CCN(C)C2` (stereo not drawn) [Example 5-2], the half-inhibitory concentration (IC50) was no less than 200 nM.
The figure for `CCCCC(NC(=O)c1[nH]c2c(c1C)C(=O)CC(C)(C)C2)C(=O)Nc1ccccc1CN(C)C` (stereo not drawn) [Example 5-3] is no less than 200 nM.
The value for `CCc1cc(C)ncc1NC(=O)C(CCC1CC1)NC(=O)c1[nH]c2c(c1C)C(=O)CC(C)(C)C2` (stereo not drawn) [Example 6-1, N-[4-cyclopropyl-1-[(4-ethyl-6-methylpyridin-3-yl)amino]-1-oxobutan-2-yl]-3,6,6-trimethyl-4-oxo-5,7-dihydro-1H-indole-2-carboxamide] was less than 50 nM; that for `CCc1ccncc1NC(=O)C(CCC1CC1)NC(=O)c1[nH]c2c(c1C)C(=O)CC(C)(C)C2` (stereo not drawn) [Example 6-2] was less than 50 nM.
The value for `CCCCC(NC(=O)c1[nH]c2c(c1C)C(=O)CC(C)(C)C2)C(=O)NCc1cccc(CN(C)CCN(C)C)n1` (stereo not drawn) [Example 6-3] was 50 to 200 nM.
As for `Cc1ccncc1NC(=O)C(CCC1CC1)NC(=O)c1[nH]c2c(c1C)C(=O)CC(C)(C)C2` (stereo not drawn) [Example 6-4], the IC50 was in the range of 50 to 200 nM.
`Cc1ccc(NC(=O)C(CCC2CC2)NC(=O)c2[nH]c3c(c2C(C)C)C(=O)CC(C)(C)C3)cn1` (stereo not drawn) [Example 6-5]: the IC50 was in the range of 50 to 200 nM.
`CCc1ncccc1NC(=O)C(CCC1CC1)NC(=O)c1[nH]c2c(c1C)C(=O)CC(C)(C)C2` (stereo not drawn) [Example 6-6]: the IC50 fell in the range of 50 to 200 nM.
The value for `Cc1c(C(=O)NC(CCC2CC2)C(=O)Nc2ccc(Cl)nc2)[nH]c2c1C(=O)CC(C)(C)C2` (stereo not drawn) [Example 6-7] was no less than 200 nM; that for `Cc1c(C(=O)NC(CCC2CC2)C(=O)Nc2ccc(C(F)(F)F)nc2)[nH]c2c1C(=O)CC(C)(C)C2` (stereo not drawn) [Example 6-8] was 50 to 200 nM.
The value for `Cc1c(C(=O)NC(CCC2CC2)C(=O)Nc2ccccn2)[nH]c2c1C(=O)CC(C)(C)C2` (stereo not drawn) [Example 6-9] was no less than 200 nM; that for `CCc1c(C(=O)NC(CCC2CC2)C(=O)Nc2ccc(C)nc2)[nH]c2c1C(=O)CC(C)(C)C2` (stereo not drawn) [Example 6-11] was 50 to 200 nM; that for `Cc1c(C(=O)NC(CCC2CC2)C(=O)Nc2ccc(F)nc2)[nH]c2c1C(=O)CC(C)(C)C2` (stereo not drawn) [Example 6-12] was 50 to 200 nM.
The figure for `Cc1c(C(=O)NC(CCC2CC2)C(=O)Nc2ccc(C#N)nc2)[nH]c2c1C(=O)CC(C)(C)C2` (stereo not drawn) [Example 6-13] is no less than 200 nM; for `Cc1cc(C)c(NC(=O)C(CCC2CC2)NC(=O)c2[nH]c3c(c2C)C(=O)CC(C)(C)C3)cn1` (stereo not drawn) [Example 6-14] it is 50 to 200 nM; for `CCc1cc(Br)ncc1NC(=O)C(CCC1CC1)NC(=O)c1[nH]c2c(c1C)C(=O)CC(C)(C)C2` (stereo not drawn) [Example 6-15] it is less than 50 nM.
Turning to `Cc1c(C(=O)NC(CCC2CC2)C(=O)Nc2cccnc2)[nH]c2c1C(=O)CC(C)(C)C2` (stereo not drawn) [Example 6-16], the IC50 was no less than 200 nM.
The value for `Cc1c(C(=O)NC(CCC2CC2)C(=O)NCc2ccccc2)[nH]c2c1C(=O)CC(C)(C)C2` (stereo not drawn) [Example 6-18] was 50 to 200 nM.
The value for `Cc1c(C(=O)NC(CCC2CC2)C(=O)N(C)Cc2ccccc2)[nH]c2c1C(=O)CC(C)(C)C2` (stereo not drawn) [Example 6-19] was no less than 200 nM; that for `Cc1c(C(=O)NC(CCC2CC2)C(=O)N(C)Cc2ccc(CN(C)C)cc2)[nH]c2c1C(=O)CC(C)(C)C2` (stereo not drawn) [Example 6-20] was less than 50 nM; that for `CCCCC(NC(=O)c1[nH]c2c(c1C)C(=O)CC(C)(C)C2)C(=O)NCc1ccc(C(=O)OC)cc1` (stereo not drawn) [Example 6-21] was no less than 200 nM.
The value for `CCCCC(NC(=O)c1[nH]c2c(c1C)C(=O)CC(C)(C)C2)C(=O)Nc1cnccc1CC` (stereo not drawn) [Example 6-22] was 50 to 200 nM; that for `CCCCC(NC(=O)c1[nH]c2c(c1C)C(=O)CC(C)(C)C2)C(=O)Nc1cccnc1CC` (stereo not drawn) [Example 6-23] was no less than 200 nM; that for `Cc1c(C(=O)NC(CCC2CCC2)C(=O)Nc2ccccc2)[nH]c2c1C(=O)CC(C)(C)C2` (stereo not drawn) [Example 6-24] was no less than 200 nM.
`Cc1c(C(=O)NC(CCC(C)C)C(=O)Nc2ccccc2)[nH]c2c1C(=O)CC(C)(C)C2` (stereo not drawn) [Example 6-25]: the IC50 was no less than 200 nM.
The value for `Cc1c(C(=O)N[C@@H](CCC2CC2)C(=O)NC2CCN(C)CC2)[nH]c2c1C(=O)CC(C)(C)C2` [Example 6-27] was 50 to 200 nM; that for `Cc1c(C(=O)NC(C(=O)Nc2ccc(OC3CCN(C)CC3)nc2)c2ccccc2Cl)[nH]c2c1C(=O)CC(C)(C)C2` (stereo not drawn) [Example 6-28] was no less than 200 nM; that for `Cc1c(C(=O)NC(C(=O)Nc2ccc(OC3CCN(C)CC3)nc2)c2ccc(Cl)cc2)[nH]c2c1C(=O)CC(C)(C)C2` (stereo not drawn) [Example 6-29] was no less than 200 nM.
The value for `CCCC[C@H](NC(=O)c1[nH]c2c(c1C)C(=O)CC(C)(C)C2)C(=O)Nc1ccc(OC2CCN(C)CC2)nc1` [Example 6-31] was less than 50 nM; that for `CCCC[C@H](NC(=O)c1[nH]c2c(c1CC)C(=O)CC(C)(C)C2)C(=O)Nc1ccccc1` [Example 6-35] was 50 to 200 nM.
The figure for `CCCC[C@H](NC(=O)c1[nH]c2c(c1C(C)C)C(=O)CC(C)(C)C2)C(=O)Nc1ccccc1` [Example 6-36] is 50 to 200 nM; for `CCCC[C@H](NC(=O)c1[nH]c2c(c1CCC)C(=O)CC(C)(C)C2)C(=O)Nc1ccccc1` [Example 6-37] it is no less than 200 nM; for `CCCC[C@H](NC(=O)c1[nH]c2c(c1C)C(=O)CC(C)(C)C2)C(=O)N[C@@H](CC)c1ccccc1` [Example 6-38] it is less than 50 nM.
Turning to `CCCC[C@H](NC(=O)c1[nH]c2c(c1CC)C(=O)CC(C)(C)C2)C(=O)N[C@@H](CC)c1ccccc1` [Example 6-39], the IC50 was 50 to 200 nM.
The figure for `CCCC[C@H](NC(=O)c1[nH]c2c(c1CC)C(=O)CC(C)(C)C2)C(=O)N[C@@H](C)c1ccccc1` [Example 6-40] is 50 to 200 nM; for `CCCC[C@H](NC(=O)c1[nH]c2c(c1C(C)C)C(=O)CC(C)(C)C2)C(=O)N[C@@H](C)c1ccccc1` [Example 6-41] it is 50 to 200 nM.
The figure for `CCCC[C@H](NC(=O)c1[nH]c2c(c1CCC)C(=O)CC(C)(C)C2)C(=O)N[C@@H](C)c1ccccc1` [Example 6-42] is 50 to 200 nM; for `CCCC[C@H](NC(=O)c1[nH]c2c(c1C)C(=O)CC1(CCCCC1)C2)C(=O)N[C@@H](C)c1ccccc1` [Example 6-43] it is no less than 200 nM.
As for `CCCC[C@H](NC(=O)c1[nH]c2c(c1C)C(=O)CC1(CCOCC1)C2)C(=O)N[C@@H](C)c1ccccc1` [Example 6-44], the IC50 is no less than 200 nM.
The figure for `CCCC[C@H](NC(=O)c1[nH]c2c(c1C)C(=O)CC(C)(C)C2)C(=O)N[C@@H](CO)c1ccccc1` [Example 6-45] is 50 to 200 nM; for `CCCC[C@H](NC(=O)c1[nH]c2c(c1CC)C(=O)CC(C)(C)C2)C(=O)N[C@@H](CO)c1ccccc1` [Example 6-46] it is 50 to 200 nM.
For `CCCC[C@H](NC(=O)c1[nH]c2c(c1C)C(=O)CC(C)(C)C2)C(=O)NC(c1ccccc1)C(C)C` (stereo partly drawn) [Example 6-47], the IC50 is less than 50 nM.
On to `CCCC[C@H](NC(=O)c1[nH]c2c(c1C)C(=O)CC(C)(C)C2)C(=O)Nc1cccc(N2CCN(C)CC2)c1` [Example 6-48], for which the IC50 is no less than 200 nM.
The value for `COc1ccc(NC(=O)C(CCC2CC2)NC(=O)c2ccc(-c3ccncc3)cc2C)cn1` (stereo not drawn) [Example 6-50] was no less than 200 nM.
Turning to `COc1ccc(NC(=O)C(CCC2CC2)NC(=O)Cc2cccc3ccccc23)cn1` (stereo not drawn) [Example 6-53], the half-inhibitory concentration (IC50) was no less than 200 nM.
`COc1ccc(NC(=O)C(CCC2CC2)NC(=O)c2nc(-c3ccccc3)sc2C)cn1` (stereo not drawn) [Example 6-54]: the IC50 was no less than 200 nM.
For the compound `COc1ccc(NC(=O)C(CCC2CC2)NC(=O)c2ccc(Nc3ccncc3)nc2)cn1` (stereo not drawn) [Example 6-56], the IC50 is no less than 200 nM.
The value for `COc1ccc(NC(=O)C(CCC2CC2)NC(=O)c2ccc(Nc3ccncc3)c(C)c2)cn1` (stereo not drawn) [Example 6-57] was less than 50 nM; that for `COc1ccc(NC(=O)C(CCC2CC2)NC(=O)c2ccc(-n3ccc4cnccc43)cc2)cn1` (stereo not drawn) [Example 6-58] was 50 to 200 nM.
The figure for `COc1ccc(NC(=O)C(CCC2CC2)NC(=O)c2ccc(NC3CCN(C)CC3)cc2)cn1` (stereo not drawn) [Example 6-59] is no less than 200 nM.
